Here are results for 14 molecules from ChEMBL document CHEMBL4052758, “Design, synthesis, biological evaluation and molecular modelling studies of novel diaryl substituted pyrazolyl thiazolidinediones as potent pancreatic lipase inhibitors” (Bioorg Med Chem Lett, 2017).

For one data set, the species on record is Sus scrofa. The experiment in a line: Inhibition of porcine pancreatic lipase type 2 assessed as residual enzyme activity using tributyrin as substrate preincubated for 30 mins followed by substrate addition measured for 5 mins.
In data set [1] the target is T1, Pancreatic triacylglycerol lipase (Sus scrofa, UniProt P00591).
T1 sequence (P00591 whole entry): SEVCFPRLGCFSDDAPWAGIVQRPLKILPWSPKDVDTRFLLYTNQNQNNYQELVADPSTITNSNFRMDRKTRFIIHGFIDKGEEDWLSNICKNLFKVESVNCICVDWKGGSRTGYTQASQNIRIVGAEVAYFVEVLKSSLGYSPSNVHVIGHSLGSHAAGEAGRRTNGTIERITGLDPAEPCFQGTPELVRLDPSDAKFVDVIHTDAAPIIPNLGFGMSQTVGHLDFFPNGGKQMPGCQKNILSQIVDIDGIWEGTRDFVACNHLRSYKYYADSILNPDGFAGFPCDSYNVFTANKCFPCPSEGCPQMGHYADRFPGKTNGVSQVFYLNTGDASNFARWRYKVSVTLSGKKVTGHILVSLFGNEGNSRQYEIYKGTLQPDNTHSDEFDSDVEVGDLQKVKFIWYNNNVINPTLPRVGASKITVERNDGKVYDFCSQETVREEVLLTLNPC
The experiment in a line: Inhibition of porcine pancreatic lipase using p-nitrophenyl butyrate as substrate preincubated for 5 mins followed by substrate addition measured after 5 mins by spectrophotometric analysis.

Data set [2] concerns the target T1, Pancreatic triacylglycerol lipase. In words: Binding affinity to porcine pancreatic lipase using p-nitrophenyl butyrate as substrate by dixon plot analysis.
Compound in data set [3]: O=C1S/C(=C\c2cn(-c3ccccc3)nc2-c2ccc(Cl)cc2)C(=O)N1Cc1ccc([N+](=O)[O-])cc1
The experiment in a line: Reversible competitive inhibition of porcine pancreatic lipase assessed as Km for substrate at 10 uM in presence of varying levels of p-nitophenyl butyrate by double reciprocal Lineweaver-burk plot analysis (reference value: 69.32 microM). As to conditions: Sus scrofa.

Compound in data set [4]: O=C1S/C(=C\c2cn(-c3ccccc3)nc2-c2ccc(Cl)cc2)C(=O)N1Cc1ccc([N+](=O)[O-])cc1
In words: Reversible competitive inhibition of porcine pancreatic lipase assessed as Km for substrate at 5 uM in presence of varying levels of p-nitophenyl butyrate by double reciprocal Lineweaver-burk plot analysis (reference value: 69.32 microM). As to conditions: Sus scrofa.

Compound in data set [5]: O=C1S/C(=C\c2cn(-c3ccccc3)nc2-c2ccc(Cl)cc2)C(=O)N1Cc1ccc([N+](=O)[O-])cc1
The experiment in a line: Reversible competitive inhibition of porcine pancreatic lipase assessed as Km for substrate at 2.5 uM in presence of varying levels of p-nitophenyl butyrate by double reciprocal Lineweaver-burk plot analysis (reference value: 69.32 microM). As to conditions: Sus scrofa.

Compound in data set [6]: O=C1S/C(=C\c2cn(-c3ccccc3)nc2-c2ccc(Cl)cc2)C(=O)N1Cc1ccc([N+](=O)[O-])cc1
The experiment in a line: Reversible competitive inhibition of porcine pancreatic lipase assessed as Vmax for substrate at 10 uM in presence of varying levels of p-nitophenyl butyrate by double reciprocal Lineweaver-burk plot analysis (reference value: 0.0545 microM/min). Conditions: Sus scrofa.

Compound in data set [7]: O=C1S/C(=C\c2cn(-c3ccccc3)nc2-c2ccc(Cl)cc2)C(=O)N1Cc1ccc([N+](=O)[O-])cc1
The experiment in a line: Reversible competitive inhibition of porcine pancreatic lipase assessed as Vmax for substrate at 5 uM in presence of varying levels of p-nitophenyl butyrate by double reciprocal Lineweaver-burk plot analysis (reference value: 0.0545 microM/min). Conditions: Sus scrofa.

Compound in data set [8]: O=C1S/C(=C\c2cn(-c3ccccc3)nc2-c2ccc(Cl)cc2)C(=O)N1Cc1ccc([N+](=O)[O-])cc1
In words: Reversible competitive inhibition of porcine pancreatic lipase assessed as Vmax for substrate at 2.5 uM in presence of varying levels of p-nitophenyl butyrate by double reciprocal Lineweaver-burk plot analysis (reference value: 0.0545 microM/min). Conditions: Sus scrofa.

The term IC50 denotes the midpoint of a concentration-inhibition curve. Read a high IC50 as a need for much substance. In the case of `O=C1S/C(=C\c2cn(-c3ccccc3)nc2-c2ccc(F)cc2)C(=O)N1Cc1ccc([N+](=O)[O-])cc1`, in the data set listed under Sus scrofa, the XI50 was 13. In data set [1], the half-inhibitory concentration (IC50) came to 5.42 µM.
The term Ki denotes a measure of affinity in units of concentration, obtained from inhibition or displacement. Molecule `O=C1S/C(=C\c2cn(-c3ccccc3)nc2-c2ccc(Cl)cc2)C(=O)N1Cc1ccc([N+](=O)[O-])cc1` came in with a Ki in data set [2] of 14.4 µM. For the same molecule, the XI50 in the data set listed under Sus scrofa worked out at 10. Further, it took 4.81 µM to reach half-maximal inhibition in data set [1] (IC50).
`O=C1S/C(=C\c2cn(-c3ccccc3)nc2-c2ccc([N+](=O)[O-])cc2)C(=O)N1Cc1ccc([N+](=O)[O-])cc1`: the XI50 in the data set listed under Sus scrofa came to 18.7. Moreover, the IC50 in [1] is 8.44 µM.
For the molecule `O=C1NC(=O)/C(=C/c2cn(-c3ccccc3)nc2-c2ccc([N+](=O)[O-])cc2)S1`, the XI50 in the data set listed under Sus scrofa was found to be 39.5. Besides, in data set [1], the half-inhibitory concentration (IC50) was 17.3 µM.
With `Cc1ccc(-c2nn(-c3ccccc3)cc2/C=C2\SC(=O)N(Cc3ccc([N+](=O)[O-])cc3)C2=O)cc1`, the XI50 in the data set filed under Sus scrofa was 19.3. The molecule further gave an IC50 in data set [1] of 9.87 µM.
Turning to `CCCCCCCCCCC[C@@H](C[C@@H]1OC(=O)[C@H]1CCCCCC)OC(=O)[C@H](CC(C)C)NC=O`, in the data set filed under Sus scrofa, the XI50 is 3.72.
Turning to `O=C1NC(=O)/C(=C/c2cn(-c3ccccc3)nc2-c2ccc(Cl)cc2)S1`, the XI50 in the data set listed under Sus scrofa was found to be 19.3. In data set [1], this molecule came in with an IC50 of 10.3 µM.
For `COc1ccc(-c2nn(-c3ccccc3)cc2/C=C2\SC(=O)N(Cc3ccc([N+](=O)[O-])cc3)C2=O)cc1`, in the data set filed under Sus scrofa, the XI50 amounted to 18.1. For the same molecule, the IC50 in data set [1] turned out to be 9.4 µM.
With `Cc1ccc(-c2nn(-c3ccccc3)cc2/C=C2\SC(=O)NC2=O)cc1`, in the data set listed under Sus scrofa, the XI50 turned out to be 27.2. This molecule gave an IC50 in [1] of 15.1 µM.
Consider `COc1ccc(-c2nn(-c3ccccc3)cc2/C=C2\SC(=O)NC2=O)cc1`, for which the XI50 in the data set filed under Sus scrofa stood at 24.4. Also, in [1], the IC50 is 13 µM.
For `O=C1NC(=O)/C(=C/c2cn(-c3ccccc3)nc2-c2ccccc2)S1`, in that order: 65.1 and 18.8 µM.
In the case of `O=C1S/C(=C\c2cn(-c3ccccc3)nc2-c2ccccc2)C(=O)N1Cc1ccc([N+](=O)[O-])cc1`, the XI50 in the data set listed under Sus scrofa was determined as 21.8. The molecule further came in with an IC50 in data set [1] of 12.5 µM.
For `O=C1NC(=O)/C(=C/c2cn(-c3ccccc3)nc2-c2ccc(F)cc2)S1`, in that order: 25.4 and 12.9 µM.

B1: Pancreatic triacylglycerol lipase (Sus scrofa), P00591 (protein)
chain: SEVCFPRLGCFSDDAPWAGIVQRPLKILPWSPKDVDTRFLLYTNQNQNNYQELVADPSTITNSNFRMDRKTRFIIHGFIDKGEEDWLSNICKNLFKVESVNCICVDWKGGSRTGYTQASQNIRIVGAEVAYFVEVLKSSLGYSPSNVHVIGHSLGSHAAGEAGRRTNGTIERITGLDPAEPCFQGTPELVRLDPSDAKFVDVIHTDAAPIIPNLGFGMSQTVGHLDFFPNGGKQMPGCQKNILSQIVDIDGIWEGTRDFVACNHLRSYKYYADSILNPDGFAGFPCDSYNVFTANKCFPCPSEGCPQMGHYADRFPGKTNGVSQVFYLNTGDASNFARWRYKVSVTLSGKKVTGHILVSLFGNEGNSRQYEIYKGTLQPDNTHSDEFDSDVEVGDLQKVKFIWYNNNVINPTLPRVGASKITVERNDGKVYDFCSQETVREEVLLTLNPC
In general, Km refers to the substrate concentration at which the rate is half of its maximum. As a reminder, the Vmax is the rate approached at saturating substrate. For the molecule B1, the figures for the Km in data set [3], in [4] and in data set [5] were 165 µM, 145 µM and 125 µM, respectively. In addition, the Vmax in data set [6] was 0.0566 µM/min; in data set [7] it was 0.0557 µM/min; in [8], 0.0565 µM/min.
